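Cells were grown in 96-well plates and exposed to each compound for 48 hours at five concentrations; endpoints were interpolated linearly between bracketing concentrations, or set to the highest concentration if not reached. TGI: total growth inhibition.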
What was measured:
Assay in all cases: growth of human tumour cells (NCI), 48 h
[1] = test system: SK-MEL-5 melanoma
[2] = test system: HOP-92 NSCLC
[3] = test system: SF-268 CNS
[4] = test system: M14 melanoma
[5] = test system: KM20L2 colon
[6] = test system: NCI-H522 lung
[7] = test system: IGROV1 ovarian
[8] = test system: OVCAR-4 ovarian
[9] = test system: U251 CNS
[10] = test system: HOP-62 NSCLC
[11] = test system: RPMI-8226 leukemia
[12] = test system: MOLT-4 leukemia
[13] = test system: SN12C renal
[14] = test system: UACC-257 melanoma
[15] = test system: SK-MEL-28 melanoma
[16] = test system: DLD-1 colon
[17] = test system: EKVX NSCLC
[18] = test system: ACHN renal
[19] = test system: SNB-19 CNS
[20] = test system: SW-620 colon
[21] = test system: NCI-H460 lung
[22] = test system: LXFL 529 NSCLC
[23] = test system: COLO 205 colon
[24] = test system: DMS 273 small cell lung
[25] = test system: 786-0 renal
[26] = test system: NCI-H226 lung
[27] = test system: CCRF-CEM leukemia
[28] = test system: M19-MEL melanoma
[29] = test system: MALME-3M melanoma
[30] = test system: SF-295 CNS
[31] = test system: OVCAR-3 ovarian
[32] = test system: HOP-18 NSCLC
[33] = test system: TK-10 renal
[34] = test system: LOX IMVI melanoma
[35] = test system: UACC-62 melanoma
[36] = test system: RXF 393 renal
[37] = test system: NCI-H23 lung
[38] = test system: HCT-15 colon
[39] = test system: UO-31 renal
[40] = test system: K-562 leukemia
[41] = test system: KM12 colon
[42] = test system: HT29 colon
[43] = test system: OVCAR-5 ovarian
[44] = test system: SF-539 CNS
[45] = test system: OVCAR-8 ovarian
[46] = test system: HCT-116 colon
[47] = test system: HCC-2998 colon
[48] = test system: SNB-75 CNS
[49] = test system: HL-60(TB) leukemia
[50] = test system: SNB-78 CNS
[51] = test system: SK-OV-3 ovarian
[52] = test system: A498 renal
[53] = test system: A549 NSCLC
[54] = test system: SR leukemia
[55] = test system: DMS 114 small cell lung
[56] = test system: CAKI-1 renal
[57] = test system: SK-MEL-2 melanoma

COC(=O)/C(C#N)=C1\NC(=O)c2ccccc21
TGI [1]: > 100 µM | TGI [2]: > 100 µM | TGI [3]: > 100 µM | TGI [4]: > 100 µM | TGI [5]: > 100 µM | TGI [6]: > 100 µM | TGI [7]: > 100 µM | TGI [8]: > 100 µM | TGI [9]: > 100 µM | TGI [10]: > 100 µM | TGI [11]: > 100 µM | TGI [12]: > 100 µM | TGI [13]: > 100 µM | TGI [14]: > 100 µM | TGI [15]: > 100 µM | TGI [16]: > 100 µM | TGI [17]: > 100 µM | TGI [18]: > 100 µM | TGI [19]: > 100 µM | TGI [20]: > 100 µM | TGI [21]: > 100 µM | TGI [22]: > 100 µM | TGI [23]: > 100 µM | TGI [24]: > 100 µM | TGI [25]: > 100 µM | TGI [26]: > 100 µM | TGI [27]: > 100 µM | TGI [28]: > 100 µM | TGI [29]: > 100 µM | TGI [30]: > 100 µM | TGI [31]: > 100 µM | TGI [32]: > 100 µM | TGI [33]: > 100 µM | TGI [34]: > 100 µM | TGI [35]: > 100 µM | TGI [36]: > 100 µM | TGI [37]: > 100 µM | TGI [38]: > 100 µM | TGI [39]: > 100 µM | TGI [40]: > 100 µM | TGI [41]: > 100 µM | TGI [42]: > 100 µM | TGI [43]: > 100 µM | TGI [44]: > 100 µM | TGI [45]: > 100 µM | TGI [46]: > 100 µM | TGI [47]: > 100 µM | TGI [48]: 76.9 µM | TGI [49]: > 100 µM | TGI [50]: > 100 µM | TGI [51]: > 100 µM | TGI [52]: > 100 µM | TGI [53]: > 100 µM | TGI [54]: > 100 µM | TGI [55]: > 100 µM

Cc1c(O)c(O)cc[n+]1C1OC(CO)C(O)C1O (stereo not drawn)
TGI [2]: > 100 µM | TGI [3]: > 100 µM | TGI [4]: > 100 µM | TGI [5]: > 100 µM | TGI [6]: > 100 µM | TGI [56]: > 100 µM | TGI [7]: > 100 µM | TGI [8]: > 100 µM | TGI [9]: > 100 µM | TGI [11]: > 100 µM | TGI [13]: > 100 µM | TGI [14]: > 100 µM | TGI [15]: > 100 µM | TGI [16]: > 100 µM | TGI [17]: > 100 µM | TGI [18]: > 100 µM | TGI [19]: > 100 µM | TGI [20]: > 100 µM | TGI [21]: > 100 µM | TGI [22]: > 100 µM | TGI [23]: > 100 µM | TGI [24]: > 100 µM | TGI [25]: > 100 µM | TGI [26]: > 100 µM | TGI [27]: > 100 µM | TGI [28]: > 100 µM | TGI [29]: > 100 µM | TGI [32]: > 100 µM | TGI [33]: > 100 µM | TGI [57]: > 100 µM | TGI [34]: > 100 µM | TGI [35]: > 100 µM | TGI [36]: > 100 µM | TGI [37]: > 100 µM | TGI [38]: > 100 µM | TGI [39]: > 100 µM | TGI [40]: > 100 µM | TGI [41]: > 100 µM | TGI [42]: > 100 µM | TGI [43]: > 100 µM | TGI [45]: > 100 µM | TGI [46]: > 100 µM | TGI [47]: > 100 µM | TGI [48]: > 100 µM | TGI [50]: > 100 µM | TGI [51]: > 100 µM | TGI [52]: > 100 µM | TGI [53]: > 100 µM
